Patent publication US20070081978A1, “Adeno-associated virus-mediated survivin mutants and methods related thereto” (priority 2005, published 2007)

How the values were obtained:
SW1116 cells [1] = test: Intratumoral rAAV gene therapy in colon cancer xenograft model: tumor growth; assay type: in vivo, BALB/c nude mice; conditions: rAAV 5×10^10 particles/site, 3 sites; 5-FU i.p. 50 mg/kg on each of 5 days
Description: rAAV-Sur-Mut(Cys84Ala) inhibited tumor growth. (A) Untreated SW1116 cell were subcutaneously injected into the right flank of athymic female nude mice. Tumors were allowed to grow to approximately 100-150 mm^3 volume. Masses were injected in three sites with rAAV-Sur-Mut(Cys84Ala), rAAV-eGFP or rAAV-Sur(wt) at 5×10^10 viral particles/site of injection, or with PBS. Photographs were taken from representative mice 4 weeks after treatment. (B) Tumor growth was measured every week after injection. Data are the means±SEM of tumor size per mouse. (C) Tissue sections of formalin-fixed, paraffin-embedded xenograft tumors were stained by H&E, immunohistochemical stained for survivin or TUNEL stained for detection of apoptotic cells. Images were representative fields of view from tumors 5 days after treatment. (Original magnification ×200)
(§1) Five- to six-week-old female BALB/c nude mice were injected subcutaneously on the flanks with 2×10^6 exponentially growing SW1116 cells. Tumors were allowed to grow to 100˜150 mm^3 (5˜7 mm diameter). For local administration of rAAV, masses were injected in three sites with rAAV-Sur-Mut(Cys84Ala), rAAV-Sur(wt) or rAAV-EGFP at 5×10^10 viral particles/site of injection, or at each of the three site with PBS. Alternatively, mice were i.p. injected with 50 mg/kg 5-fluorouracil daily for 5 days, or a combination of rAAV virus and 5-Fluorouracil. Tumor growth was measured weekly after injection. In other experiments, mice received an injection of uninfected exponentially growing 2×10^6 SW1116 cells. After 7 days, mice were given an injection of same dosage of rAAV virus and 5-FU (3 animals/group). After 5 days, animals were euthanized, and their total tumor burden was excised, fixed and embedded in paraffin blocks for H&E, TUNEL and immunohistochemical staining, or tumors were snap-frozen in liquid nitrogen for CD31 staining.

SW1116 cells [2] = test: Survival of xenograft-bearing mice; assay type: in vivo, BALB/c nude mice
Description: rAAV-Sur-Mut(Cys84Ala) prolonged the survival of mice. (A) Masses were injected in three sites with rAAV-Sur-Mut(Cys84Ala), rAAV-Sur(wt) and rAAV-eGFP at 5×10^10 viral particles/site of injection, or in combination with 5-Fluorouracil for 5 days. Tumor xenografts were collected and tissue sections of formalin-fixed, paraffin-embedded xenograft were TUNEL stained for apoptosis. (B) Survival curve. The experimental conditions were as in (A) Survival was monitored every day, and tumor volume was measured every week after treatment. Definition of death is natural death due to tumor burden or killing due to tumor sizes (diameter) more than 2.5 cm.
as §1, with “After 7 days, mice were given an injection of same dosage of rAAV virus and 5-FU (3 animals/group). After 5 days, animals were euthanized, and their total tumor burden was excised, fixed and embedded in paraffin blocks for H&E, TUNEL and immunohistochemical staining, or tumors were snap-frozen in liquid nitrogen for CD31 staining.” left out

SW1116 cells [3] = test: Drug-induced apoptosis by FACS analysis (Table 1); assay type: cell-based, Human; conditions: rAAV 1×10^5 viral particle/cell, or followed by 10 μg/ml 5-fluorouracil for 72 hour; mean ± SEM
Description: Cells were collected and fixed in ice-cold 70% ethanol in PBS and stored at −20° C. before use. After re-suspension, cells were washed and incubated with 100 μl of RNase I (1 mg/ml) and 100 μl of propidium iodide (400 μg/ml; Sigma) at 37° C. for 30 min. Samples were analyzed by flow cytometry (Coulter, Luton). The cell-cycle phase distribution was calculated from the resultant DNA histogram using Multicycle AV software (Phoenix Flow Systems, San Diego, Calif.). Cells with subdiploid DNA content were scored as apoptotic.

In the case of O=c1[nH]cc(F)c(=O)[nH]1 [5-FU, 5-fluorouracil], the “Number of mice with tumor regression” value (SW1116 cells [1]) was 0/4, the Rate of inhibition (SW1116 cells [1]) was 61.2% and the Tumor size (SW1116 cells [1]) was 606.3 ± 106.7 mm^3. For the same compound, the “survival (comparison in words)” value (SW1116 cells [2]; mouse, in vivo) was “survived significantly longer than buffer-treated mice”, the clinical symptoms (SW1116 cells [2]; tumor-bearing mice) was “developed severe symptoms related to tumor growth” and the “% Apoptosis” value (SW1116 cells [3]) was 26.0 ± 3.4%.
